# Source: patent US20110165173A1, “THERAPEUTIC AGENT AND DETECTION REAGENT FOR ARTERIOSCLEROTIC DISEASE WHICH TARGETS FOR SALUSIN” (PROTEINEXPRESS CO., LTD., priority 2007, published 2011)
# System: human monocyte-derived macrophages
# Experiment: Cholesterol esterification assay: foaming of human monocyte-derived macrophages caused by AcLDL
# Type: cell-based
# Conditions: 0.6 nM; 5 μg/mL AcLDL added on Day 7
# Description: Cholesterol esterification assay was employed as a method for assaying foaming of macrophages [Goldstein J L et al., Methods Enzymol. 1983; 98: 241-260]. Macrophages cause acetylated LDL (AcLDL) to be incorporated into cells via scavenger receptors so as to result in lysosome degradation. Free cholesterol produced in a lysosome is transferred to ACAT and converted into cholesterol ester as a result of ACAT reaction. If [^3H]oleate is added to a medium, [^3H]oleate is incorporated into cells and converted into [^3H]oleoyl-CoA by acyl CoA synthase. ACAT produces cholesterol [^3H]oleate with the use of as substrates, AcLDL-derived free cholesterol and [^3H]oleoyl-CoA obtained as above. The radioactivity of cholesterol [^3H]oleate accumulated in cells can serve as a sensitive indicator for cholesterol ester accumulation (FIG. 7).
# LDL (d=1.019-1.063) was purified from human blood plasma by sequential flotation ultracentrifugation [Schumaker VN et al., Methds Enzymol. 1986; 128: 155-170]. […] The volume of the obtained blood plasma fraction from which chylomicron and VLDL had been removed was measured with a volumetric flask. […]
# Equivalent volumes of LDL (protein: 30 mg) (15 mL if 2.0 mg protein/mL) and saturated sodium acetate were mixed together. […] At this time, pH was monitored with a pH meter with the dropwise addition of 5 N NaOH thereto such that the pH could be maintained at more than 6.5. […]
Substance,accumulation of cholesterol [3H]oleate caused by AcLDL relative to control cells,"accumulation of cholesterol [3H]oleate caused by AcLDL, percent of loaded control cells"
"salusin-β: peptide (SEQ ID NO: 3) comprising 20 amino acid residues, generated by processing from preprosalusin (AIFIFIRWLLKLGHHGRAPP; listed as Homo sapiens) [reference compound]",1.6 times,–
"salusin-α: peptide (SEQ ID NO: 1) comprising 28 amino acid residues, generated by processing from preprosalusin (SGALPPAPAAPRPALRAQRAGPAGPGAK; listed as Homo sapiens)",–,50%
